Measured values published in patent US20230181535A1, “UBIQUITIN-LIGASE INHIBITORS FOR THE TREATMENT OF CANCER” (FUNDACIÓN PROFESOR NOVOA SANTOS, priority 2020, published 2023).

Columns and labels:
[1] = test system: Hakai-MDCK cell lines (clone 4 and clone 11); assay: MTT cell viability assay, Hakai-MDCK; assay type: cell-based; conditions: Hakai-MDCK clone 4 and clone 11, compared with MDCK
Protocol: (§1) For cytotoxicity assays, 1×10^4 cells were seeded per well into a 96-well plate. After 24 h cells were treated with the indicated inhibitors for 72 h and a MTT colorimetric cell viability assay was performed following manufacturer's instructions (Sigma Aldrich, St Louis, Mo.). Absorbance was measured at 570 and 630 nm using a Multiskan Plus Reader (Nanoquant Infinite M200 Tecan Trading AG, Switzerland). Dose-response curves were designed with Graph Pad Prism Software and the half-maximal inhibitory concentration (IC50) values were calculated. Represented data are the mean±SEM of at least three independent experiments with six replicates per condition.

HT29 cells = assay: BrdU proliferation assay, HT29; assay type: cell-based, human; conditions: 48 h
Protocol: (§2) For BrdU assays, 1×10^4 of indicated cells were plated per well into a 96-well plate. After 24 h, cells were treated with the indicated inhibitors for 48 h. Three independent experiments were plated with six replicates per each condition. Cells were treated with […] BrdU for 2 h. BrdU incorporation into newly synthesized DNA was measured using a cell proliferation colorimetric immunoassay kit according to the manufacturer's instructions (Roche, Switzerland). Results are expressed as mean±S.D. Results are represented as percentage of positive cells (mean±S.D) of three independent experiments.

HT-29 cells [2] = assay: Phase-contrast cell phenotype, HT-29; assay type: cell-based, human
Protocol: (§3) MDCK, HEK293T, HepG2, MCF7 and ACHN cells were cultured in Dulbecco's Modified Eagles Medium (DMEM). MDCK stably expressing Hakai cells (Hakai-MDCK) were previously reported and were growth in DMEM with G418 (800 μg/ml). […] LoVo and PC-3 cells were cultured in F-12K Medium (Kaighn's Modification of Ham's F-12 Medium) and HT-29 and HCT116 cells in McCoy's 5a Medium Modified. 5637 cells were cultured in RPMI medium. All culture media were supplemented with 1% penicillin/streptomycin and 10% of heat-inactivated fetal bovine serum (FBS) at 37° C. in a humidified incubator with 5% CO2. Cells were monthly tested for mycoplasma contamination and used only for 1-3 months after defrosted. LoVo and HT29 cells were authenticated with the StemElite ID system (Promega). For phase-contrast images, culture cells were photographed with a Nikon Eclipse-TI microscope.

LoVo cells [3] = assay: BrdU proliferation assay, LoVo; assay type: cell-based; conditions: 48 h
Protocol: as §2

[4] = test system: normal epithelial MDCK cell line; assay: MTT cell viability assay, MDCK; assay type: cell-based; conditions: compared with Hakai-MDCK
Protocol: as §1

HT-29 cells [5] = assay: Immunofluorescence of E-cadherin, HT-29; assay type: cell-based, human; conditions: for E-cadherin expression at cell-cell contacts (immunofluorescence, Image J): 48 hours, 5-100 μM, vs DMSO vehicle control
Protocol: (§4) For western blot analysis, cells were treated with the indicated inhibitors for 48 h and the whole cell extracts were obtained as described previously. Twenty micrograms of lysates were resolved on a 10% polyacrilamide SDS-PAGE followed by western blot analysis performed as previously described. For immunofluorescence assays cells were grown for 24 h on glass coverslips and treated with the indicated inhibitors for 48 h. Cells were fixed with 4% PFA for 15 min, permeabilized with 0.5% […] and incubated with E-cadherin antibody for 2 h. Coverslips were incubated with fluorescein-tagged secondary antibody (Dakopatts, Sweden) for […]. Finally coverslips were mounted with ProLong Gold antifade reagent (LifeTech, UK) and images were taken in epifluorescence microscope (Olympus) using 40× objective. Immunofluorescence of E-cadherin and DNA content analysis for FIGS. 22-23 were performed culturing of HT-29 human colorectal adenocarcinoma cell line in 384-well plates with densities of 3,000 cells per well in a total volume of 25 μl. After the completion of the staining, four images (2×2 array) of each well were taken with Vala Sciences' SIM™ with a 20× objective. Each image was acquired as a SIM Synthetic Focus with a z-stack range of 6 μm with 1 μm steps. The SIM Synthetic Focus feature will compile a “best focus” images from multiple images. One set of SIM Synthetic Focus images were taken in the DAPI channel for Hoechst 33342 staining, and another set of images were taken in the FITC channel for anti-E-cadherin-AlexaFluor488 labeling and analysed by Structured Illumination Microscopy (SIM™) platform to image the cells and Vala's CyteSeer® Cell-Cell Junction Algorithm to quantify the degree of expression and intracellular location of E-cadherin Vala's CyteSeer® Software can also measure relative DNA content by analyzing Total Integrated Intensity (TII) of the Nuclear Image (Ni) on the Nuclear Mask (Nm). This analysis was performed by Vala Science. Twenty compounds from were assayed in a “blinded” manner, at 2 test concentrations in 6 replicate wells for first assay and 3 replicate for second assay.

LoVo cells [6] = assay: Phase-contrast cell phenotype, LoVo; assay type: cell-based
Protocol: as §3

HT-29 cells [7] = assay: Western blotting of EMT markers, HT-29; assay type: cell-based, human; conditions: 48 h
Protocol: as §4

epithelial MDCK cells = assay: Phase-contrast cell phenotype, MDCK; assay type: cell-based
Protocol: as §3

[8] = test system: Hakai-transformed MDCK cells; assay: Phase-contrast cell phenotype, Hakai-MDCK; assay type: cell-based; conditions: Hakai-transformed MDCK cells (mesenchymal phenotype)
Protocol: as §3

[9] = biological target: T1, E3 ubiquitin-ligase Hakai (Mus musculus, UniProt Q9JIY2); assay: In vivo Hakai-dependent ubiquitination assay in 293T cells; assay type: cell-based; conditions: vs DMSO; for Hakai-induced ubiquitination: HEK293T cells transfected with Hakai and ubiquitin
T1 construct: expressed in transfected cells; host or cells: HEK293T
T1 sequence (Q9JIY2 1-491): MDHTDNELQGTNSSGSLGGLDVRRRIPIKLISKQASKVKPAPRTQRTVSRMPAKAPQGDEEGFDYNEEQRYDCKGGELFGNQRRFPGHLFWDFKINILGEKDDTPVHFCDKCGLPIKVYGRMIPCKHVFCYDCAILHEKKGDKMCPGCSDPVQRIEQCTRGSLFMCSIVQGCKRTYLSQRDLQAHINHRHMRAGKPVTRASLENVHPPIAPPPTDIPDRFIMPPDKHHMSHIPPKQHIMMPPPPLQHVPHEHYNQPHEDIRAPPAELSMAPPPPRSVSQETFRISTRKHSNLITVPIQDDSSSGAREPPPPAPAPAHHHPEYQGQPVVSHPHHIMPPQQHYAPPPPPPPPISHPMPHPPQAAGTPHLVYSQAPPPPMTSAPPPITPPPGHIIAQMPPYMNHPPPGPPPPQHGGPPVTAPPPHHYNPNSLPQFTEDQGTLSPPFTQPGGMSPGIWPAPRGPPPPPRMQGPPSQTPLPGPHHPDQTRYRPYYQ
Protocol: For ubiquitination assays, 750.000 HEK293T cells were seeded in 6-well cell culture plates and after 24 h were transfected with 0.25 μg Src, 0.75 μg Flag-Hakai, and 0.5 μg HA-ubiquitin with Lipofectamin 2000 (Invitrogen, UK). Six hours after transfection cells were treated with indicated concentrations of Hakin-1, Hakin-5 or the rest of the compounds tested for 36 h. Whole cell extracts were obtained in lysis buffer (20 mM Tris-HCl pH 7.5, 150 mM NaCl and 1% Triton X-100) containing 10 μg/ml leupeptin, 10 μg/ml aprotinin and 1 mM phenylmethanesulphonyl fluoride (PMSF), supplemented with 10 mM N-ethylmaleimide. Cells were harvested and subjected to western blotting using anti-HA antibody to detect ubiquitination.

[10] = test system: HCT116 colon cancer cells; assay: MTT cell viability assay, HCT116; assay type: cell-based, human; conditions: concentrations tested in the previous assays
Protocol: as §1

HT-29 cells [11] = assay: Cell cycle (DNA content) analysis with CyteSeer, HT-29; assay type: cell-based, human
Protocol: as §4

[12] = test system: non-cancerous HEK293T cells; assay: MTT cell viability assay, HEK293T; assay type: cell-based, human; conditions: concentrations tested in the previous assays
Protocol: as §1

HT29 cell line = assay: Invasion assay, HT29 (dose/response); assay type: cell-based, human; conditions: for cell invasion: treated 48 h, 1 μM, 10 μM, 50 μM, vs DMSO
Protocol: [The procedure below names another cell line; the source lists this cell line under the same test.] For invasion assays, cells were treated with Hakin-1 or DMSO as vehicle for 48 h using 1% FBS during the last 24 hours. 3×10^5 MDCK, MDCK-Hakai or LoVo cells were seeded in a cell invasion chamber (Cell invasion assay kit, Chemicon International) containing medium with 2% FBS. After 72 hours for MDCK and MDCK-Hakai Invasive and 16 h for LoVo cells, invasive cells invaded that reach the lower chamber containing 30% FBS were fixed and stained with crystal violet (Sigma Aldrich, St Louis, Mo.) following the manufacturer's specifications. For migration assays, HT29 cells were cultured with Hakin-1 or DMSO as vehicle for 48 h, using medium without serum the last 24 h. In the cell migration chamber were seeded 3×10^5 HT29 cells (Cell migration kit, Millipore, Bedford, Mass.) containing medium without serum. After 16 h, migrated cells in the lower chamber containing serum with 30% FBS were stained with crystal violet and counted following the manufacturer's specifications. For both invasion and migration assays cells were counted in five fields photographed with an Olympus microscope using a 20× objective, experiments were performed in triplicates for each condition and the assays were repeated at least three times. Results are expressed as mean±SD.

[13] = test system: HT-29 human colorectal adenocarcinoma cell line; assay: E-cadherin at cell-cell contacts, Vala SIM / CyteSeer Cell-Cell Junction Algorithm, HT-29; assay type: cell-based; conditions: for E-cadherin levels at cell-cell contacts: 48 hours, vs DMSO vehicle control; for increase of E-cadherin expression levels: 24 hours
Protocol: as §4

[14] = test system: Colon cancer HCT116 cells; assay: BrdU proliferation assay, HCT116; assay type: cell-based, human; conditions: 48 h
Protocol: as §2

CC(/C=C/C(=O)O)=C\CC(O)/C(C)=C/CCC(C)C(C)O (stereo not shown) [Hakin-5, (2E,4E,8E)-7,13-Dihydroxy-4,8,12-trimethyl-2,4,8-tetradecatrienoic acid, reference compound]
sensitivity to treatment (cell viability, MTT) [1]: more sensitive
cell proliferation (BrdU) (HT29 cells): no effect was seen
cell phenotype by phase contrast (HT-29 cells [2]): modestly induce an epithelial phenotype
cell proliferation (BrdU) (LoVo cells [3]): no effect was seen
sensitivity to treatment (cell viability, MTT) [4]: more resistant
E-cadherin levels at cell-cell contacts (immunofluorescence) (HT-29 cells [5]; 48 h, vs DMSO): no effect by western-blotting or immunofluorescence was detected on E-cadherin protein levels
cell phenotype by phase contrast (LoVo cells [6]): modestly induce an epithelial phenotype
EMT markers expression (E-Cadherin, Cortactin, Hakai) (HT-29 cells [7]; HT29): does not affect the EMT markers expression
E-cadherin levels (western blotting) (HT-29 cells [7]; HT-29): no effect by western-blotting or immunofluorescence was detected on E-cadherin protein levels
cell phenotype by phase contrast (epithelial MDCK cells): no effect was observed
cell phenotype by phase contrast [8]: induction of an epithelial phenotype
ubiquitination mediated by Hakai ([9]; 293T cells transfected with Src, Flag-Hakai and HA-ubiquitin, western blotting anti-HA): no effect was detected on Hakai-mediated ubiquitination

O=C(O)c1ccc(-n2nnnc2SC(c2ccccc2)c2ccc(Cl)cc2)cc1 (stereo not shown) [Compound K1]
cytotoxic effect (cell viability, MTT) [10]: no cytotoxic effect
cell cycle (HT-29 cells [11]; 100 μM, 48 hours): arrested the cells in G0/G1 phase
cell numbers (HT-29 cells [11]; 100 μM, 48 hours): reduced the cell numbers
cytotoxic effect (cell viability, MTT) [12]: no cytotoxic effect
cell invasion (HT29 cell line): reduce cell invasion
Hakai-induced ubiquitination [9]: reduced ubiquitination at 20 μM and 100 μM
E-cadherin levels at cell-cell contacts ([13]; 100 μM): significantly increased E-cadherin levels at cell-cell contacts

O=C(O)c1ccc(-n2nnnc2SC2CCc3ccccc3NC2=O)cc1 (stereo not shown) [Compound K33]
E-cadherin expression at cell-cell contacts (immunofluorescence, Image J) (HT-29 cells [5]): increase E-cadherin levels at cell-cell contacts

COC(=O)Nc1nc2ccc(C(=O)c3cccs3)cc2[nH]1 [nocodazole]
cell cycle (HT-29 cells [11]; 24 hours, vs DMSO vehicle control): dramatic shift towards G2/M phase arrest
increase of E-cadherin expression levels ([13]; 250 ng/ml): 32%
increase of E-cadherin expression levels ([13]; 500 ng/ml): 42%
increase of E-cadherin expression levels ([13]; 1000 ng/ml): 47%

Cc1ccc(NC(=O)CSc2nnnn2-c2cccc(C(=O)O)c2)cc1C [Compound K2]
cell cycle (HT-29 cells [11]; 100 μM, 48 hours): arrested the cells in G0/G1 phase
cell numbers (HT-29 cells [11]; 100 μM, 48 hours): reduced the cell numbers
E-cadherin levels at cell-cell contacts ([13]; 100 μM or 20 μM): Significant differences were also detected

Cc1ccc(CNC(=O)CSc2nc3sccc3c(=O)n2-c2ccc(C(=O)O)cc2)cc1 [Compound K8]
cytotoxic effect (cell viability, MTT) [10]: inhibitory response in cancer cells
cell proliferation (BrdU) [14]: inhibit cell proliferation
E-cadherin expression at cell-cell contacts (immunofluorescence, Image J) (HT-29 cells [5]): increase E-cadherin levels at cell-cell contacts
cytotoxic effect (cell viability, MTT) [12]: no effect was detected in non-tumour cells
IC50 (HT29 cell line; Homo sapiens, HT-29, treated 48 h, read-out: concentration at which 50% inhibition of invasion was achieved): ~1 µM
cell invasion (HT29 cell line): reduce cell invasion
Hakai-induced ubiquitination [9]: reduce ubiquitination at 20 μM
